3 compounds from patent US4169197A, “6-Deoxyneamines aminoglycoside compounds” (The Upjohn Company, priority 1978, dated 1979) can be followed below.

≈ marks a conversion by molar mass, not a printed value. Where two headings read alike, the source gives them in different places.

Common to all, as to type: cell-based
One assay relates to B. cereus UC 3145. The assay is described as follows: standard disc plate assay, zones of inhibition. The conditions noted are these: Bacillus cereus, 12.5 mm paper discs. From the text:
(§1) The compounds of formulas (V, VII, IX, XI, XIV, XVI, and XIX) are active as antibacterials and can be used in various environments to erradicate or control susceptible microorganisms. Tables I and II set forth the in vitro antibacterial test results for representative compounds of the present invention. The results were obtained with a standard disc plate assay using 12.5 mm paper discs.

In a further assay the test system is B. subtilis UC 564. The assay is described as follows: standard disc plate assay, zones of inhibition. Particulars: Bacillus subtilis, UC564, 12.5 mm paper discs, read-out: Zones of Inhibition; for zone of inhibition at 100 µg/mL: 0.1 mg/ml; for zone of inhibition at 1000 µg/mL: 1 mg/ml.
Description: as §1

Another assay deals with E. coli UC 51. Description: standard disc plate assay, zones of inhibition. The conditions noted are these: Escherichia coli, UC51, 12.5 mm paper discs, read-out: Zones of Inhibition; for zone of inhibition at 100 µg/mL: 0.1 mg/ml; for zone of inhibition at 1000 µg/mL: 1 mg/ml.
Description: as §1

For the next assay, the system named is K. pneumoniae UC 57. The assay is described as follows: standard disc plate assay, zones of inhibition. Particulars: Klebsiella pneumoniae, UC57, 12.5 mm paper discs, read-out: Zones of Inhibition; for zone of inhibition at 100 µg/mL: 0.1 mg/ml; for zone of inhibition at 1000 µg/mL: 1 mg/ml.
Description: as §1

Assay [1] deals with P. vulgaris UC 93. Description: standard disc plate assay, zones of inhibition. The conditions noted are these: Proteus vulgaris, UC93, 1 mg/ml, 12.5 mm paper discs, read-out: Zones of Inhibition.
Description: as §1

The test system of assay [2] is Ps. aeruginosa UC 95. Description: standard disc plate assay, zones of inhibition. Particulars: Pseudomonas aeruginosa, UC95; 1 mg/ml; 12.5 mm paper discs; Table II; read-out: Zones of Inhibition.
Description: as §1

The subject of the next assay is S. aureus UC 80. Description: standard disc plate assay, zones of inhibition. Particulars: Staphylococcus aureus, 12.5 mm paper discs; for zone of inhibition at 100 µg/mL: 0.1 mg/ml.
Description: as §1

In another assay the test system is S. gallinarum UC 265. The assay is described as follows: standard disc plate assay, zones of inhibition. The conditions noted are these: Salmonella enterica, 12.5 mm paper discs, read-out: Zones of Inhibition; for zone of inhibition at 100 µg/mL: 0.1 mg/ml; for zone of inhibition at 1000 µg/mL: 1 mg/ml.
Description: as §1

Another assay deals with S. lutea UC 130. Description: standard disc plate assay, zones of inhibition. Particulars: Micrococcus luteus, UC130, 1 mg/ml, 12.5 mm paper discs, read-out: Zones of Inhibition.
Description: as §1

The test system of assay [3] is S. schottmuelleri UC 126. The assay is described as follows: standard disc plate assay, zones of inhibition. Particulars: 1 mg/ml, 12.5 mm paper discs.
Description: as §1

The next assay has as its system E. coli UC 311. The assay is described as follows: standard microplate test in BHI Agar. Particulars: Escherichia coli, UC311; BHI Agar, 37°, 20 hours; Table IV; read-out: Minimal Inhibitory Concentration. As for the experimental part:
(§2) The compounds VII, XI, XVβ, XVα and XVI were tested in a standard microplate test in BHI (Brain Heart Infusion) Agar at a concentration of 1 mg./ml. and dilutions thereof at 37° incubation temperature. The end points are read out 20 hours. BHI Agar is supplied by Difco Laboratories, Detroit, Mich.

Another assay relates to K. pneumoniae UC 58. The assay is described as follows: standard microplate test in BHI Agar. Particulars: Klebsiella pneumoniae, read-out: Minimal Inhibitory Concentration. As for the experimental part:
as §2

The test system of a further assay is P. mirabilis UC 6671. Description: standard microplate test in BHI Agar. Particulars: Proteus mirabilis, UC6671; BHI Agar, 37°, 20 hours; Table IV; read-out: Minimal Inhibitory Concentration. Here is the method:
as §2

The next assay deals with P. morganii UC 3186. Description: standard microplate test in BHI Agar. The conditions noted are these: Morganella morganii, read-out: Minimal Inhibitory Concentration. As for the experimental part:
as §2

For another assay, the system named is P. rettgeri UC 339. The assay is described as follows: standard microplate test in BHI Agar. Particulars: Providencia rettgeri, UC339; BHI Agar, 37°, 20 hours; Table IV; read-out: Minimal Inhibitory Concentration. As for the experimental part:
as §2

For assay [4], the system named is P. vulgaris UC 93. Description: standard microplate test in BHI Agar. The conditions noted are these: Proteus vulgaris, UC93; BHI Agar, 37°, 20 hours; Table IV; read-out: Minimal Inhibitory Concentration. As for the experimental part:
as §2

For assay [5], the system named is Ps. aeruginosa UC 95. Description: standard microplate test in BHI Agar. Particulars: Pseudomonas aeruginosa, UC95; BHI Agar, 37°, 20 hours; Table IV; read-out: Minimal Inhibitory Concentration. As for the experimental part:
as §2

For another assay, the system named is S. aureus UC 76. Description: standard microplate test in BHI Agar. Particulars: Staphylococcus aureus, read-out: Minimal Inhibitory Concentration. As for the experimental part: as §2
A further assay concerns S. faecalis UC 694. The assay is described as follows: standard microplate test in BHI Agar. Particulars: Enterococcus faecalis, UC694, 20 h, read-out: Minimal Inhibitory Concentration. Here is the method: as §2
The next assay deals with S. flexneri UC 143. Description: standard microplate test in BHI Agar. Particulars: Shigella flexneri, UC143, 37°, 20 hours, Table IV, read-out: Minimal Inhibitory Concentration. As for the experimental part: as §2
Another assay relates to S. marcescens UC 131. The assay is described as follows: standard microplate test in BHI Agar. Particulars: Serratia marcescens, UC131; BHI Agar, 37°, 20 hours; Table IV; read-out: Minimal Inhibitory Concentration. As for the experimental part: as §2
The subject of another assay is S. pneumoniae I UC 41. Description: standard microplate test in BHI Agar. Particulars: Streptococcus pneumoniae, read-out: Minimal Inhibitory Concentration. As for the experimental part: as §2
Another assay deals with S. pyogenes UC 152. Description: standard microplate test in BHI Agar. The conditions noted are these: Streptococcus pyogenes, read-out: Minimal Inhibitory Concentration. Here is the method: as §2
Assay [6] has as its system S. schottmuelleri UC 126. The assay is described as follows: standard microplate test in BHI Agar. Particulars: 37°, 20 hours, Table IV, read-out: Minimal Inhibitory Concentration. As for the experimental part: as §2
The next assay has as its system S. typhi UC 215. The assay is described as follows: standard microplate test in BHI Agar. The conditions noted are these: Salmonella enterica, 20 h, read-out: Minimal Inhibitory Concentration. Here is the method:
as §2

`NC[C@H]1O[C@H](O[C@@H]2[C@@H](N)C[C@@H](N)C[C@@H]2O)[C@H](N)[C@@H](O)[C@@H]1O` [6-Deoxy-5-epineamine (XI), 6-deoxy-5-epineamine]: the zone of inhibition at 1000 µg/mL with B. cereus UC 3145 (UC3145, 1 mg/ml, Table II, read-out: Zones of Inhibition) was found to be 22 mm; in the assay with B. subtilis UC 564 (Table II), 35 mm; with E. coli UC 51 (Table II), 24 mm; in the assay with K. pneumoniae UC 57 (Table II) it was 30 mm; in the assay with P. vulgaris UC 93 [1] (Table II) it was 24 mm; in the assay on Ps. aeruginosa UC 95 [2] it was 17 mm. Also, the zone of inhibition at 1000 µg/mL in the assay with S. aureus UC 80 (UC80, 1 mg/ml, Table II, read-out: Zones of Inhibition) is 24 mm; in the assay with S. gallinarum UC 265 (Table II) it was 27 mm; with S. lutea UC 130 (Table II), 17 mm; in the assay on S. schottmuelleri UC 126 [3] (Table II) it was 21 mm. In addition, the zone of inhibition at 100 µg/mL in the assay on B. subtilis UC 564 (Table II) is 26 mm; in the assay on E. coli UC 51 (Table II), 16 mm; in the assay on K. pneumoniae UC 57 (Table II) it was 23 mm; with S. aureus UC 80 (UC80, Table II, read-out: Zones of Inhibition), 17 mm; with S. gallinarum UC 265 (Table II) it was 18 mm.

Turning to `NC[C@H]1O[C@H](O[C@@H]2[C@@H](N)C[C@@H](N)C[C@H]2O[C@@H]2C[C@@H](N)[C@H](O)[C@@H](CO)O2)[C@H](N)[C@@H](O)[C@@H]1O` [Compound XVI, O-2,6-diamino-2,6-dideoxy-α-D-glucopyranosyl (1→4)-O-[3-amino-2,3-dideoxy-α-D-arabinohexopyranosyl(1→5)]-2,6-dideoxy-D-streptamine], the zone of inhibition at 1000 µg/mL in the assay on B. cereus UC 3145 (UC3145, 1 mg/ml, Table I, read-out: Zones of Inhibition) turned out to be 18 mm; with B. subtilis UC 564 (Table I), 34 mm; with E. coli UC 51 (Table I), 19 mm; in the assay on K. pneumoniae UC 57 (Table I), 24 mm; with P. vulgaris UC 93 [1] (Table I), 18 mm; in the assay with S. aureus UC 80 (UC80, read-out: Zones of Inhibition, 1 mg/ml, Table I), 21 mm. The values for the zone of inhibition at 1000 µg/mL in the assay with S. gallinarum UC 265 (Table I) and in the assay with S. schottmuelleri UC 126 [3] (Table I) were 20 mm and 15 mm, respectively. In addition, the zone of inhibition at 100 µg/mL in the assay on B. subtilis UC 564 (Table I) came to 25 mm. The MIC with E. coli UC 311 is greater than 500 µg/mL; with K. pneumoniae UC 58 (UC58, BHI Agar, 37°, 20 hours, Table IV), 125 µg/mL (≈ 277 µM); in the assay on P. mirabilis UC 6671, greater than 500 µg/mL; in the assay with P. morganii UC 3186 (UC3186, BHI Agar, 37°, 20 hours, Table IV) it was 250 µg/mL (≈ 554 µM); in the assay with P. rettgeri UC 339 it was greater than 500 µg/mL; in the assay with P. vulgaris UC 93 [4], greater than 500 µg/mL. Also, the MIC with Ps. aeruginosa UC 95 [5] was greater than 500 µg/mL; with S. aureus UC 76 (UC76, BHI Agar, 37°, 20 hours, Table IV), 250 µg/mL (≈ 554 µM); in the assay with S. faecalis UC 694, greater than 500 µg/mL; in the assay with S. flexneri UC 143, greater than 500 µg/mL; in the assay on S. marcescens UC 131, greater than 500 µg/mL; in the assay with S. pneumoniae I UC 41 (UC41, BHI Agar, 37°, 20 hours, Table IV (printed D. pneumoniae UC 41)), greater than 500 µg/mL. The MIC in the assay on S. pyogenes UC 152 (UC152, BHI Agar, 37°, 20 hours, Table IV) was 250 µg/mL (≈ 554 µM); in the assay with S. schottmuelleri UC 126 [6], greater than 500 µg/mL; with S. typhi UC 215, greater than 500 µg/mL.

On to `NC[C@H]1O[C@H](O[C@@H]2[C@@H](N)C[C@@H](N)C[C@H]2O[C@H]2O[C@H](CO)[C@@H](O)[C@H]2O)[C@H](N)[C@@H](O)[C@@H]1O` [Compound XVα, O-2,6-diamino-2,6-dideoxy-α-D-glucopyranosyl (1→4)-O-[α-D-ribofuranosyl(1→5)]-2,6-dieoxy-D-streptamine], for which the zone of inhibition at 1000 µg/mL in the assay with B. cereus UC 3145 (UC3145, read-out: Zones of Inhibition, 1 mg/ml, Table I) was found to be 20 mm; in the assay on B. subtilis UC 564 (Table I), 34 mm; in the assay on E. coli UC 51 (Table I) it was 24 mm; in the assay on K. pneumoniae UC 57 (Table I) it was 31 mm; in the assay with P. vulgaris UC 93 [1] (Table I) it was 23 mm; in the assay on S. aureus UC 80 (UC80, 1 mg/ml, Table I, read-out: Zones of Inhibition), 25 mm. Besides, the zone of inhibition at 1000 µg/mL was found to be 26 mm with S. gallinarum UC 265 (Table I), 16 mm in the assay with S. lutea UC 130 (Table I) and 20 mm in the assay on S. schottmuelleri UC 126 [3] (Table I). In addition, the zone of inhibition at 100 µg/mL turned out to be 25 mm with B. subtilis UC 564 (Table I); 17 mm in the assay on E. coli UC 51 (Table I); 23 mm in the assay with K. pneumoniae UC 57 (Table I); 17 mm in the assay with S. aureus UC 80 (UC80, Table I, read-out: Zones of Inhibition); 17 mm with S. gallinarum UC 265 (Table I). The MIC is 250 µg/mL (≈ 570 µM) in the assay with E. coli UC 311; 15.6 µg/mL (≈ 35.6 µM) in the assay with K. pneumoniae UC 58 (UC58, 20 h); greater than 500 µg/mL in the assay with P. mirabilis UC 6671; 125 µg/mL (≈ 285 µM) with P. morganii UC 3186 (UC3186, 20 h); greater than 500 µg/mL with P. rettgeri UC 339; 500 µg/mL (≈ 1140 µM) with P. vulgaris UC 93 [4]. The MIC in the assay with Ps. aeruginosa UC 95 [5] was greater than 500 µg/mL; with S. aureus UC 76 (UC76, 20 h), 125 µg/mL (≈ 285 µM); in the assay on S. faecalis UC 694, greater than 500 µg/mL; in the assay with S. flexneri UC 143, 500 µg/mL (≈ 1140 µM); with S. marcescens UC 131, 500 µg/mL (≈ 1140 µM); with S. pneumoniae I UC 41 (UC41, 20 h), 125 µg/mL (≈ 285 µM). The MIC with S. pyogenes UC 152 (UC152, 20 h) turned out to be 31.2 µg/mL (≈ 71.2 µM); in the assay with S. schottmuelleri UC 126 [6], 125 µg/mL (≈ 285 µM); in the assay with S. typhi UC 215 it was 62.5 µg/mL (≈ 143 µM).
